{"source": "paper PMC11943115", "about": "“GSTD1 Mediates the Tolerance to Abamectin and Beta-Cypermethrin in the Fall Armyworm Spodoptera frugiperda” (Insects, 2025)", "biological_target": "T1, SfGSTD1 (Spodoptera frugiperda, UniProt A0A9R0F5L2)", "T1 construct": "gene LOC118269876; not XP_035440580.2, another SfGSTD1 of the literature that clusters with SeGSTD3", "T1 sequence (A0A9R0F5L2 1-244)": "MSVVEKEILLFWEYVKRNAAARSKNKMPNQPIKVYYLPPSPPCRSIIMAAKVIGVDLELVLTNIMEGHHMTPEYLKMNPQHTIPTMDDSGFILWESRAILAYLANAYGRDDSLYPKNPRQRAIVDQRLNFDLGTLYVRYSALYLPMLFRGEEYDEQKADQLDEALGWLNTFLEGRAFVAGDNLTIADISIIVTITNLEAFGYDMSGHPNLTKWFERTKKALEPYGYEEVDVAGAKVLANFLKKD", "assay": "GSH conjugation, absorbance […] nm", "assay_type": "biochemical", "settings": "4 mM GSH; CDNB 0.125 to 4 mM", "data": [{"smiles": "O=[N+]([O-])c1ccc(Cl)c([N+](=O)[O-])c1", "note": "[CDNB]", "values": [{"measurement": "Km", "result": "421 ± 109", "unit": "µM"}]}]}
